Laboratory results from patent US6673782B2, “Treatment of systemic lupus erythematosis” (Wisconsin Alumni Research Foundation, priority 1999, dated 2004).
“Also recorded” adds a separate entry of the source.

How the values were obtained:
[1] = tested on: MRL/I mice; conditions: Lemire et al., Autoimmunity 1992; cited from earlier work
[2] = tested on: MRL/MPJ-Fas<lpr>mice; assay: Mean symptom scores of lupus in MRL/MPJ-Fas mice on 0.02% calcium diet; assay type: in vivo; conditions: for Mean symptom scores on 0.02% Ca: 0.02% Ca diet + 100 ng/mouse/day, score 0.5-3
Description: (§1) MRL/MPJ-Fasmice were raised on a chow diet. At 5-6 weeks of age 13 mice were switched to a purified diet containing 0.02% calcium and 14 mice were put on a diet containing 0.02% calcium with 100 ng of 1,25(OH)2D3 per/mouse/day. The mice were checked weekly for physical symptoms of lupus. The symptoms were given numerical scores starting at 0.5=small sore on skin; 1=swollen lymph nodes under front legs; 2=swollen lymph nodes under front legs and neck; 3=swollen lymph nodes under front legs, neck, and back legs (severity scores used in figure on the next page).
(§2) FIG. 3A and B and Tables 3 and 4 disclose data points obtained in this study. At 12 weeks of age the 0.02% Ca+100 ng of 1,25(OH)2D3 group began to show SLE symptoms. It was not until 14 weeks of age that the control (0.02% Ca) mice had the same percentage severity as the mice dosed with 1,25(OH)2D3. Between 18 and 20 weeks of age, about 21.4% of the 0.02% Ca+100 ng 1,25(OH)2D3 mice died. However, none of the controls had reached motality. The experiment was ended at 20 weeks of age.

[3] = Serum calcium, hypercalcemia and death in MRL mice on 0.87% calcium diet; assay type: in vivo; conditions: for Serum calcium: 0.87% Ca diet (controls 8 mg %Ca)
Description: (§3) When the MRL mice in this study were 4 weeks old, they were started on one of three experimental diets. All mice were fed the experimental diet which contains 0.87% Ca. Control mice are fed the experimental diet with no 1,25(OH)2D3; one group of 7 mice were fed the experimental diet with 50 ng/mouse/day of 1,25(OH)2D3; and another group of 8 mice were fed the experimental diet with 200 ng/mouse/day of 1,25(OH)2D3. The mice were checked weekly for physical symptoms. In control-fed MRL mice, SLE disease symptoms spontaneously develop after 5 weeks. Symptoms were given numbers from 0.5 to 3, with 0.5 being small sores; 1, swollen lymph nodes under front legs; 2, swollen lymph nodes under front legs and on neck; 3, swollen lymph nodes under front legs, neck and back legs (severity scores for table).
(§4) The diet was then replaced with the same diet providing a dose level of 100 ng/mouse/day.
(§5) The first physical symptoms of lupus began to develop in two female control-fed mice at 14 weeks of age. […] At 17 weeks of age the control mice started to die. Their proteinuria levels were elevated above 300 mg/dl. […] FIG. 1 compares the percentage of mice with elevated proteinuria with the age of the mouse. FIG. 2 compares the severity of the SLE with symptoms the age of the mice.
Serum calcium values were measured and found to be at 8 mg %Ca for the controls, and 12 mg %Ca for both the 50 ng and 100 ng treated groups. The 1,25(OH)2D3 treatment diet was removed at 17 weeks of age, and all mice were fed the 0.87% calcium control diet for the remainder of the experiment.

[4] = tested on: MRL/MPJ mice; assay: Proteinuria in MRL mice on 0.87% calcium diet; assay type: in vivo; conditions: for % of Mice with Proteinuria at 100 mg/dL and Greater: 0.87% Ca
Description: as §3
Proteinuria levels were checked weekly started at 16 weeks of age.
as §5

[5] = tested on: MRL/MPJ-Fas<lpr>mice; assay: Mortality of MRL/MPJ-Fas mice on 0.02% calcium diet; assay type: in vivo; conditions: 0.02% Ca + 100 ng/mouse/day; between 18 and 20 weeks of age (no control deaths)
Description: as §1, §2

[6] = tested on: MRL/MPJ-Fas<lpr>mice; assay: Proteinuria in MRL/MPJ-Fas mice on 0.02% calcium diet; assay type: in vivo; conditions: 0.02% Ca diet + 100 ng/mouse/day
[7] = tested on: MRL/MPJ mice; assay: SLE disease severity (physical symptom) scores in MRL mice on 0.87% calcium diet; assay type: in vivo; design: key to Mean scores of disease severity: 0.5 = small sores … 3 = swollen nodes front legs, neck and back legs; conditions: for Mean scores of disease severity: 0.87% Ca, score 0.5-3
Description: MRL mice are the model for the human disease lupus. See Brians, et al., J. Exp. Med. 148:1198-1215, 1978 and P. L. Cohen and R. A. Eisenburg, Annu. Rev. Immunol. 9:243-69, 1991.
as §3, §4, §5

## C=C1/C(=C\C=C2/CCC[C@]3(C)[C@@H]([C@H](C)CCCC(C)(C)O)CC[C@@H]23)C[C@@H](O)C[C@@H]1O [1,25(OH)2D3, 1α,25-dihydroxyvitamin D3]
[1]
  Effect on symptoms of experimental murine lupus: attenuation by 1,25-dihydroxyvitamin D3 of some symptoms
[2]; 0.02% Ca + 100 ng/mouse/day
  Age at which group began to show SLE symptoms: 12 weeks of age
[2]; age 10 weeks
  Mean symptom scores on 0.02% Ca: 0
[2]; age 11 weeks
  Mean symptom scores on 0.02% Ca: 0.214 ± 0.410
[2]; age 12 weeks
  Mean symptom scores on 0.02% Ca: 1.642 ± 0.410
[2]; age 13 weeks
  Mean symptom scores on 0.02% Ca: 2.14 ± 0.515
[2]; age 14 weeks
  Mean symptom scores on 0.02% Ca: 2.714 ± 0.45
[2]; age 15 weeks
  Mean symptom scores on 0.02% Ca: 2.785 ± 0.41
[2]; age 16 weeks
  Mean symptom scores on 0.02% Ca: 2.85 ± 0.349
[2]; age 17 weeks
  Mean symptom scores on 0.02% Ca: 2.85 ± 0.349
[2]; age 18 weeks
  Mean symptom scores on 0.02% Ca: 2.80 ± 0.46
[2]; age 19 weeks
  Mean symptom scores on 0.02% Ca: 2.77 ± 0.49
[2]; age 20 weeks
  Mean symptom scores on 0.02% Ca: 2.95 ± 0.33
[2]; low calcium diet and treatment
  Disease progression: disease progression occurring more quickly
[2]; mice on a 0.02% (low) calcium diet
  Effect on SLE symptoms: not effective; also recorded: did not inhibit these symptoms
[3]; 50 ng treated group
  Serum calcium: 12 mg %Ca
[3]; 100 ng treated group
  Serum calcium: 12 mg %Ca
[3]; 200 ng/mouse/day, 0.87% Ca diet, at 10 weeks of age
  Symptoms of hypercalcemia: began to show symptoms of hypercalcemia
[3]; 0.87% Ca diet, at 17 weeks of age
  Death of treated animals: began to die of what we believe to be hypercalcemia
[4]; 50 ng/mouse/day in diet, treatment removed at 17 weeks, age 18 weeks
  % of Mice with Proteinuria at 100 mg/dL and Greater: 0%
[4]; 50 ng/mouse/day in diet, treatment removed at 17 weeks, age 19-25 weeks
  % of Mice with Proteinuria at 100 mg/dL and Greater: 0%
[4]; 50 ng/mouse/day in diet, age 0-15 weeks
  % of Mice with Proteinuria at 100 mg/dL and Greater: 0%
[4]; 50 ng/mouse/day in diet, age 16-17 weeks
  % of Mice with Proteinuria at 100 mg/dL and Greater: 0%
[4]; 200 ng then 100 ng/mouse/day in diet, treatment removed at 17 weeks, age 18 weeks
  % of Mice with Proteinuria at 100 mg/dL and Greater: 0%
[4]; 200 ng then 100 ng/mouse/day in diet, treatment removed at 17 weeks, age 19-25 weeks
  % of Mice with Proteinuria at 100 mg/dL and Greater: 0%
[4]; 200 ng then 100 ng/mouse/day in diet, age 16-17 weeks
  % of Mice with Proteinuria at 100 mg/dL and Greater: 0%
[4]; 200 ng then (from 10 weeks) 100 ng/mouse/day in diet, age 0-15 weeks
  % of Mice with Proteinuria at 100 mg/dL and Greater: 0%
[4]; all treated mice, 0.87% Ca diet, whole experiment
  Development of proteinuria of 100 mg/dL or greater: none of the 1,25(OH)2D3 treated mice developed proteinuria of 100 mg/dL or greater
[5]
  Mice died: about 21.4%
[6]; age 10 weeks
  % Proteinurea scores above 100 mg/dl on 0.02% Ca: 0%
[6]; age 11 weeks
  % Proteinurea scores above 100 mg/dl on 0.02% Ca: 0%
[6]; age 12 weeks
  % Proteinurea scores above 100 mg/dl on 0.02% Ca: 7.14%
[6]; age 13 weeks
  % Proteinurea scores above 100 mg/dl on 0.02% Ca: 14.28%
[6]; age 14 weeks
  % Proteinurea scores above 100 mg/dl on 0.02% Ca: 14.28%
[6]; age 15 weeks
  % Proteinurea scores above 100 mg/dl on 0.02% Ca: 35.7%
[6]; age 16 weeks
  % Proteinurea scores above 100 mg/dl on 0.02% Ca: 28.57%
[6]; age 17 weeks
  % Proteinurea scores above 100 mg/dl on 0.02% Ca: 28.57%
[6]; age 18 weeks
  % Proteinurea scores above 100 mg/dl on 0.02% Ca: 42.85%
[6]; age 19 weeks
  % Proteinurea scores above 100 mg/dl on 0.02% Ca: 28.57%
[6]; age 20 weeks
  % Proteinurea scores above 100 mg/dl on 0.02% Ca: 28.57%
[7]; 50 ng/mouse/day until 17 weeks, age 18 weeks
  Mean scores of disease severity: 0.21
[7]; 50 ng/mouse/day until 17 weeks, age 19 weeks
  Mean scores of disease severity: 0.12
[7]; 50 ng/mouse/day until 17 weeks, age 20 weeks
  Mean scores of disease severity: 0.33
[7]; 50 ng/mouse/day until 17 weeks, age 21 weeks
  Mean scores of disease severity: 0.11
[7]; 50 ng/mouse/day until 17 weeks, age 22 weeks
  Mean scores of disease severity: 0.11
[7]; 50 ng/mouse/day until 17 weeks, age 23 weeks
  Mean scores of disease severity: 0.11
[7]; 50 ng/mouse/day until 17 weeks, age 24 weeks
  Mean scores of disease severity: 0.11
[7]; 50 ng/mouse/day, age 0-13 weeks
  Mean scores of disease severity: 0.00
[7]; 50 ng/mouse/day, age 14 weeks
  Mean scores of disease severity: 0.00
[7]; 50 ng/mouse/day, age 15 weeks
  Mean scores of disease severity: 0.00
[7]; 50 ng/mouse/day, age 16 weeks
  Mean scores of disease severity: 0.21
[7]; 50 ng/mouse/day, age 17 weeks
  Mean scores of disease severity: 0.21
[7]; 200 ng then 100 ng/mouse/day until 17 weeks, age 18 weeks
  Mean scores of disease severity: 0.07
[7]; 200 ng then 100 ng/mouse/day until 17 weeks, age 19 weeks
  Mean scores of disease severity: 0.08
[7]; 200 ng then 100 ng/mouse/day until 17 weeks, age 20 weeks
  Mean scores of disease severity: 0.00
[7]; 200 ng then 100 ng/mouse/day until 17 weeks, age 21 weeks
  Mean scores of disease severity: 0.00
[7]; 200 ng then 100 ng/mouse/day until 17 weeks, age 22 weeks
  Mean scores of disease severity: 0.00
[7]; 200 ng then 100 ng/mouse/day until 17 weeks, age 23 weeks
  Mean scores of disease severity: 0.00
[7]; 200 ng then 100 ng/mouse/day until 17 weeks, age 24 weeks
  Mean scores of disease severity: 0.00
[7]; 200 ng then 100 ng/mouse/day, age 14 weeks
  Mean scores of disease severity: 0.00
[7]; 200 ng then 100 ng/mouse/day, age 15 weeks
  Mean scores of disease severity: 0.00
[7]; 200 ng then 100 ng/mouse/day, age 16 weeks
  Mean scores of disease severity: 0.00
[7]; 200 ng then 100 ng/mouse/day, age 17 weeks
  Mean scores of disease severity: 0.00
[7]; 200 ng then (from 10 weeks) 100 ng/mouse/day, age 0-13 weeks
  Mean scores of disease severity: 0.00
[7]; mice on a 0.87% calcium diet
  Effect on SLE symptoms: prevented or slowed SLE symptoms
[7]; treated mice, 0.87% Ca diet
  Disease severity scores versus controls: much less for the treated mice than for controls
[7]; treated mice, 0.87% Ca diet, at 14 weeks of age (two control mice symptomatic)
  Physical symptoms of lupus: None of the 1,25(OH)2D3-treated mice showed symptoms
